Patent US8735429B2, “Benzamide compounds useful as histone deacetylase inhibitors” (AstraZeneca AB, priority 2005, dated 2014)

Assays:
[1] = biological target: T1, recombinant human HDAC1 (Homo sapiens, UniProt Q13547); assay: In vitro enzyme assay of recombinant HDAC1 (Test (a)); format: biochemical; details: recombinant human HDAC1, acetylated histone H4 peptide substrate; read-out: IC50 Test (a) (In vitro assay for the inhibition of HDAC1)
T1 construct: FLAG (C); made in house; host or cells: Hi5 insect cells
T1 sequence (Q13547 whole entry): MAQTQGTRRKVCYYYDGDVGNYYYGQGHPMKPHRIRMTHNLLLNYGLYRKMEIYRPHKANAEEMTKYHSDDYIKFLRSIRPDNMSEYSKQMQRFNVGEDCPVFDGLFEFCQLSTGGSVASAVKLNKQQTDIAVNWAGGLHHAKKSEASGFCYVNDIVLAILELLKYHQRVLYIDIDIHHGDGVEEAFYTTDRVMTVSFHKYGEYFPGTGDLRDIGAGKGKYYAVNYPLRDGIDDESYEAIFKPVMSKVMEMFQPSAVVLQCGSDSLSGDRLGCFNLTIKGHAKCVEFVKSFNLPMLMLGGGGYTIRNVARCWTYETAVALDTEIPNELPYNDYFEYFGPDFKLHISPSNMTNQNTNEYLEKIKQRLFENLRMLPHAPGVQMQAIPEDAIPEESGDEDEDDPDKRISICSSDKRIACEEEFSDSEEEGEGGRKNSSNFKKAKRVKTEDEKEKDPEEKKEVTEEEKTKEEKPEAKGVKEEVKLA
Method: (a) In Vitro Enzyme Assay of Recombinant HDAC1
HDAC inhibitors were screened against recombinant human HDAC1 produced in Hi5 insect cells. The enzyme was cloned with a FLAG tag at the C-terminal of the gene and affinity purified using Anti-FLAG M2 agarose from SIGMA (A2220).
The deacetylase assays were carried out in a 50 μl reaction. HDAC1 (75 ng of enzyme) diluted in 15 μl of reaction buffer (25 mM TrisHCl (pH 8), 137 mM NaCl, 2.7 mM KCl, 1 mM MgCl2) was mixed with either buffer alone (10 μl) or buffer containing compound (10 μl) for 30 minutes at ambient temperature. 25 μM acetylated histone H4 peptide (KI 174 Biomol) diluted in 25 μl of buffer was then added to the reaction and incubated for one hour at ambient temperature. The reaction was stopped by addition of an equal volume (50 μl) of Fluor de Lys developer (Biomol) containing Trichostatin A at 2 μM. The reaction was allowed to develop for 30 minutes at ambient temperature and then fluorescence measured at an excitation wavelength of 360 nm and an emission wavelength of 465 nm. IC50 values for HDAC enzyme inhibitors were determined by performing dose response curves with individual compounds and determining the concentration of inhibitor producing fifty percent decrease in the maximal signal (diluent control).

[2] = tested on: HCT116 cells; assay: In vitro assay of inhibition of proliferation in whole cells (Test (b)); format: cell-based; details: Homo sapiens, HCT-116, 72 hours, MTS, read-out: IC50 Test (b) (In vitro assay for the inhibition of whole cell proliferation)
Method: (b) In Vitro Assay of Inhibition of Proliferation in Whole Cells
Inhibition of proliferation in whole cells was assayed using the Promega cell titer 96 aqueous proliferation assay (Promega #G5421). HCT116 cells were seeded in 96 well plates at 1×10^3 cells/well, and allowed to adhere overnight. They were treated with inhibitors for 72 hours. 20 μl of the tetrazolium dye MTS was added to each well and the plates were re-incubated for 3 hours. Absorbance was then measured on a 96 well plate reader at […]. The IC50 values for HDAC inhibitors were determined by performing dose response curves with individual compounds and determining the concentration of inhibitor producing fifty percent decrease in the maximal signal (diluent control).

IC50 [1]	IC50 [2]	Compound
100 nM	1430 nM	Nc1ccccc1NC(=O)c1ccc(C2CCN(Cc3ccccn3)CC2)cc1 [Comparative Compound 1, N-(2-aminophenyl)-4-[1-(pyrid-2-ylmethyl)piperidin-4-yl]benzamide]
81 nM	508 nM	COc1c(CN2CCC(c3ccc(C(=O)Nc4ccccc4N)cc3)CC2)c(C)nn1C [Example 4, N-(2-Aminophenyl)-4-{1-[(5-methoxy-1,3-dimethyl-1H-pyrazol-4-yl)methyl]piperidin-4-yl}benzamide]
